Results taken from ChEMBL document CHEMBL6127052, “Discovery of membrane-targeting amphiphilic honokiol derivatives containing an oxazolethione moiety to combat methicillin-resistant Staphylococcus aureus (MRSA) infections” (Eur J Med Chem, 2024).
Active and inactive are the calls of the source. The calls are words filed in the database; no cut-off is given here.

Columns and labels:
[1] = Toxicity in KM mouse assessed as necrosis in cardiac muscle fibers at 20 mg/kg, sc measured after 24 hrs by H and E staining based analysis; type: organism-based; settings: in vivo
Escherichia coli = assay: Antibacterial activity against Escherichia coli ATCC 25922 by CLSI based micro-broth dilution method; type: functional
[2] = Toxicity in KM mouse assessed as formation of hard lumps at administration site at >40 mg/kg, sc; type: organism-based; settings: in vivo
Staphylococcus aureus [3] = assay: Antibacterial activity against methicillin-resistant Staphylococcus aureus clinical isolate M12 incubated for 16 to 18 hrs in presence of cardiolipin; type: functional; settings: time 16-18 hrs
[4] = Toxicity in BALB/c mouse assessed as change in mental status at <15 mg/kg, ip bid for 7 days; type: organism-based; settings: in vivo, 168 h, time 7 day
Staphylococcus aureus [5] = assay: Antibacterial activity against methicillin-resistant Staphylococcus aureus clinical isolate M12 infected in sepsis BALB/c mouse model assessed as decrease in pathological change in white medulla of spleen at 12 mg/kg, ip administered consecutively at 12 hr-interval for 24 hrs measured after 24 hrs post-last dose by H and E staining based analysis; type: functional, organism-based; settings: time 48.0 hrs
[6] = Toxicity in KM mouse assessed as necrosis in hepatocytes at 20 mg/kg, sc measured after 24 hrs by H and E staining based analysis; type: organism-based; settings: in vivo
[7] = Selectivity index, ratio of HC50 for hemolytic activity in sheep erythrocytes to MIC for antibacterial activity against Staphylococcus aureus ATCC 29213; type: toxicity, cell-based, RBC
[8] = Toxicity in KM mouse assessed as pathological change in liver at 20 mg/kg, sc measured after 24 hrs by H and E staining based analysis; type: organism-based; settings: in vivo
[9] = Toxicity in KM mouse assessed as pathological change in red medulla of spleen at 20 mg/kg, sc measured after 24 hrs by H and E staining based analysis; type: organism-based; settings: in vivo
Staphylococcus aureus [10] = assay: Antibacterial activity against methicillin-resistant Staphylococcus aureus clinical isolate M12 infected in KM mouse assessed as reduction in IL-6 level at infection site at 10 mg/kg, sc measured after 24 hrs by ELISA; type: functional
Staphylococcus aureus [11] = assay: Antibacterial activity against methicillin-resistant Staphylococcus aureus clinical isolate M22 by CLSI based micro-broth dilution method; type: functional
Staphylococcus aureus [12] = assay: Induction of cell membrane damage in methicillin-resistant Staphylococcus aureus clinical isolate M12 assessed as increase in red fluorescence at 8 times MIC incubated for 4 hrs by DAPI/PI staining based analysis; type: functional, organism-based
[13] = Toxicity in KM mouse infected with methicillin-resistant Staphylococcus aureus clinical isolate M12 assessed as histopathological abnormality in liver at 5 to 10 mg/kg, sc measured after 24 hrs by H and E staining based analysis; type: organism-based; settings: in vivo, dose 5-10 mg/kg
Staphylococcus aureus [14] = assay: Antibacterial activity against methicillin-resistant Staphylococcus aureus clinical isolate M23 by CLSI based micro-broth dilution method; type: functional
Staphylococcus aureus [15] = assay: Bactericidal activity against methicillin-resistant Staphylococcus aureus clinical isolate M12 assessed as inhibition of bacterial growth at 4 times MIC incubated upto 8 hrs by time-kill assay; type: functional, organism-based
Staphylococcus aureus [16] = assay: Antibacterial activity against methicillin-resistant Staphylococcus aureus clinical isolate M14 by CLSI based micro-broth dilution method; type: functional
[17] = Toxicity in KM mouse assessed as change in RBC count at 20 mg/kg, sc measured after 24 hrs; type: organism-based; settings: in vivo
[18] = Toxicity in KM mouse assessed as change in urea level at 20 mg/kg, sc measured after 24 hrs; type: organism-based; settings: in vivo
[19] = Toxicity in KM mouse infected with methicillin-resistant Staphylococcus aureus clinical isolate M12 assessed as damage in liver at 5 to 10 mg/kg, sc measured after 24 hrs by H and E staining based analysis; type: organism-based; settings: in vivo, dose 5-10 mg/kg
Staphylococcus aureus [20] = assay: Disruption of cell membrane in methicillin-resistant Staphylococcus aureus clinical isolate M12 assessed as increase in DNA leakage incubated for 4 hrs by […]; type: functional, organism-based; settings: dose <= 16.0 µg/ml
Staphylococcus aureus [21] = assay: Antibacterial activity against methicillin-resistant Staphylococcus aureus clinical isolate M12 infected in KM mouse assessed as decrease in bacterial survival rate at 10 mg/kg, sc measured after 24 hrs by drop-plate counting method relative to control; type: functional
[22] = Toxicity in KM mouse assessed as pathological change in kidney at 20 mg/kg, sc measured after 24 hrs by H and E staining based analysis; type: organism-based; settings: in vivo
Staphylococcus aureus [23] = assay: Antibacterial activity against methicillin-resistant Staphylococcus aureus clinical isolate M12 infected in KM mouse assessed as reduction in IL-6 level at infection site at 5 mg/kg, sc measured after 24 hrs by ELISA; type: functional
[24] = Toxicity in KM mouse assessed as change in platelet count at 20 mg/kg, sc measured after 24 hrs; type: organism-based; settings: in vivo
Staphylococcus aureus [25] = assay: Antibacterial activity against methicillin-resistant Staphylococcus aureus clinical isolate M17 by CLSI based micro-broth dilution method; type: functional
Staphylococcus aureus [26] = assay: Induction of morphological changes in methicillin-resistant Staphylococcus aureus clinical isolate M12 assessed as torn cell membrane at 8 times MIC incubated for 4 hrs by SEM analysis; type: functional, organism-based
[27] = Toxicity in KM mouse assessed as smooth skin at <20 mg/kg, sc; type: organism-based; settings: in vivo
Staphylococcus aureus [28] = assay: Induction of morphological changes in methicillin-resistant Staphylococcus aureus clinical isolate M12 assessed as rupture of bacterial bodies at 8 times MIC incubated for 4 hrs by SEM analysis; type: functional, organism-based
[29] = Toxicity in KM mouse assessed as formation of small erythema at administration site at >40 mg/kg, sc; type: organism-based; settings: in vivo
[30] = Toxicity in KM mouse assessed as necrosis in lung epithelial cells at 20 mg/kg, sc measured after 24 hrs by H and E staining based analysis; type: organism-based; settings: in vivo
Staphylococcus aureus [31] = assay: Induction of morphological changes in methicillin-resistant Staphylococcus aureus clinical isolate M12 assessed as concavity in cell membrane at 8 times MIC incubated for 4 hrs by SEM analysis; type: functional, organism-based
[32] = Toxicity in KM mouse assessed as edema in lung epithelial cells at 20 mg/kg, sc measured after 24 hrs by H and E staining based analysis; type: organism-based; settings: in vivo
Staphylococcus aureus [33] = assay: Antibacterial activity against methicillin-resistant Staphylococcus aureus clinical isolate M12 infected in KM mouse assessed as decrease in neutrophils at subcutaneous tissues at 5 to 10 mg/kg, sc measured after 24 hrs; type: functional, organism-based; settings: dose 5-10 mg/kg
[34] = Toxicity in BALB/c mouse assessed as necrosis in hepatocytes at 15 mg/kg, ip bid for 7 days; type: organism-based; settings: in vivo, 168 h, time 7 day
Staphylococcus aureus [35] = assay: Antibacterial activity against methicillin-resistant Staphylococcus aureus clinical isolate M21 by CLSI based micro-broth dilution method; type: functional
Staphylococcus aureus [36] = assay: Induction of morphological changes in methicillin-resistant Staphylococcus aureus clinical isolate M12 assessed as irregular change in cell surface at 8 times MIC incubated for 4 hrs by SEM analysis; type: functional, organism-based
Staphylococcus aureus [37] = assay: Antibacterial activity against methicillin-resistant Staphylococcus aureus clinical isolate M12 incubated for 16 to 18 hrs in presence of phosphatidylglycerol; type: functional; settings: time 16-18 hrs
[38] = Toxicity in sepsis BALB/c mouse model infected with methicillin-resistant Staphylococcus aureus clinical isolate M12 assessed as survival rate at 6 mg/kg, ip administered consecutively at 12 hr-interval for 7 days measured after 24 hrs post-last dose; type: organism-based; settings: in vivo, 192 h, time 8 day

With C=CCc1cc(-c2ccc(OCCC[N+](C)(C)CC(=O)NCCCC)c(CC=C)c2)c2oc(=S)n(Cc3ccc(F)cc3)c2c1.[Br-] the Activity [1] was “Non-Toxic”, the MIC (Escherichia coli) was > 128 mg/L and the Activity [2] was “Toxic”. The MIC (Staphylococcus aureus [3]) was 32 mg/L, the Activity [4] was “Non-Toxic” and the Activity (Staphylococcus aureus [5]) was “Active”. For the same compound, the Activity [6] was “Non-Toxic”, the selectivity ratio [7] was 95.1 and the Activity [8] was “Non-Toxic”. The Activity [9] was “Non-Toxic”, the Activity (Staphylococcus aureus [10]) was 66.7 pg/mL and the MIC (Staphylococcus aureus [11]) was 4 mg/L. For the same compound, the Activity (Staphylococcus aureus [12]) was “Active”, the Activity [13] was “Non-Toxic” and the MIC (Staphylococcus aureus [14]) was 2 mg/L. For the same compound, the Activity (Staphylococcus aureus [15]) was “Active”, the MIC (Staphylococcus aureus [16]) was 2 mg/L and the Activity [17] was “Non-Toxic”. The Activity [18] was “Non-Toxic”, the Activity [19] was “Non-Toxic” and the Activity (Staphylococcus aureus [20]) was “Dose-Dependent Effect”. The Activity (Staphylococcus aureus [21]) was 99.67%, the Activity [22] was “Non-Toxic” and the Activity (Staphylococcus aureus [23]) was 65.6 pg/mL. For the same compound, the Activity [24] was “Non-Toxic”, the MIC (Staphylococcus aureus [25]) was 4 mg/L and the Activity (Staphylococcus aureus [26]) was “Active”. For the same compound, the Activity [27] was “Non-Toxic”, the Activity (Staphylococcus aureus [28]) was “Active” and the Activity [29] was “Toxic”. For the same compound, the Activity [30] was “Non-Toxic”, the Activity (Staphylococcus aureus [31]) was “Active” and the Activity [32] was “Non-Toxic”. For the same compound, the Activity (Staphylococcus aureus [33]) was “Active”, the Activity [34] was “Non-Toxic” and the MIC (Staphylococcus aureus [35]) was 2 mg/L. The Activity (Staphylococcus aureus [36]) was “Active”, the MIC (Staphylococcus aureus [37]) was 128 mg/L and the Survival [38] was 16.7%.
